Counter-ions that a name gives are not always drawn.
How the values were obtained:
[1] = Solubility of fluphenazine dihydrochloride in poly(meth)acrylate pressure-sensitive adhesives; format: physicochemical
Excerpt: Addition of Eudragit E100 (Röhm Pharma GmbH) was therefore provided for in all cases. This poly-(meth)acrylate has trialkylamino groups in its lateral chain and is capable of functioning as an ion-exchange resin. In this way, the chloride ions of the fluphenazine dihydrochloride are bonded to Eudragit E100 while protons are accepted simultaneously, with fluphenazine being formed as a free base in a certain equilibrium. Advantageous is an at least equimolar ratio of Eudragit E100 and fluphenazine dihydrochloride, i.e. of amounts by weight having the same equivalent weight calculated as potassium hydroxide.

[2] = In vitro skin permeation through human epidermis (modified Franz cell, HPLC); format: in vitro ADME; settings: 32° C., Oppanol-based matrix with Eudragit E100 and oleic acid, n=3
Description: Skin permeability was examined in vitro using full thickness cow udder skin and human epidermis, the latter having been separated from human full-thickness skin by heat separation.
The tests were carried out at 32° C. in a suitable permeation device (modified Franz cell), and fluphenazine was measured in the resultant samples using a suitable HPLC method. All indicated values are based on n=3 samples.

[3] = in vivo; cited from earlier work

Row | Structure (SMILES) | solubility in Durotak 387-2051 ([1]; with addition of Eudragit E100) | solubility in Durotak 387-2287 ([1]; with addition of Eudragit E100) | solubility in poly(meth)acrylate adhesive polymers or the organic solvents required for processing ([1]; without Eudragit E100, result in words) | maximum flow rate of fluphenazine base [2] [μg/h·cm^2] | half-life in blood plasma [3] [h]
1 | OCCN1CCN(CCCN2c3ccccc3Sc3ccc(C(F)(F)F)cc32)CC1 [fluphenazine dihydrochloride] | at least 15 %-wt. | at least 10 %-wt. | almost insoluble | – | –
2 | OCCN1CCN(CCCN2c3ccccc3Sc3ccc(C(F)(F)F)cc32)CC1 [fluphenazine] | – | – | – | 2.9 | 15
